Where a name gives a salt, the structure may show the parent alone.
How the values were obtained:
[1] = target: T1, CB1-type cannabinoid receptor (Mus musculus, UniProt P47746); assay: inhibition of gastrointestinal transit induced by racemic CP55,940 in mice (charcoal bolus); assay type: in vivo; conditions: 1 mg/kg po; male CD1 mice; CP55,940 0.15 mg/kg ip; progression of charcoal bolus
T1 construct: male CD1 mice receive the test product per os; from tissue; host or cells: whole animal, male CD1 mice
Description: Thirty minutes later, the animals are sacrificed by euthanasia (CO2/O2) and the intestine is dissected. The progression of the charcoal bolus in the intestine is expressed as percentage of the total length of the intestine.
Consequently, the compounds of the invention of formula (I) are in vitro and in vivo CB1-type cannabinoid receptor antagonists. Some compounds are active in vivo with regard to both the hypothermia test and the transit test, and some compounds show activities split up between the hypothermia test and the transit test.

[2] = target: T2, human CB1 receptor (Homo sapiens, UniProt P21554); assay: intracellular cyclic AMP functional test in U373MG cells (HTRF cAMP Dynamic Kit); assay type: cell-based; conditions: U373MG cells naturally expressing the human CB1 receptor
T2 construct: U373MG cells naturally expressing the human CB1 receptor; endogenous in cells; host or cells: U373MG cells
Protocol: The compounds according to the invention have formed the subject of pharmacological assays which make it possible to determine the activity with regard to human CB1-type cannabinoid receptors. The effectiveness of the compounds of formula (I) was determined in a functional test in which the activity of the CB1 cannabinoid receptors is measured (intracellular cyclic AMP test). The test for detecting intracellular cyclic AMP in U373MG cells naturally expressing the human CB1 receptor was carried out as described in the reference: Bouaboula et al., 1995, J. Biol. Chem. 270: 13973-13980. The HTRF cAMP Dynamic Kit from CisBio was used to quantify the intracellular cyclic AMP. In this test, the IC50 values are between 0.001 μM and 2 μM.

[3] = target: T3, CB cannabinoid receptor (Mus musculus, UniProt P47746); assay: hypothermia induced by CB agonist racemic CP55,940 in mice (rectal temperature); assay type: in vivo; conditions: 3 mg/kg po; male CD1 mice; CP55,940 1.25 mg/kg i.p.; rectal temperature at 90 minutes
T3 construct: from tissue; host or cells: whole animal, male CD1 mice
Protocol: Other assays consisting in measuring the in vivo activity of the compounds of the invention were carried out. Their antagonist activity was shown by means of the model of […] induced by a CB cannabinoid receptor agonist (racemic CP55,940 ((1RS,3RS,4RS)-3-[2-hydroxy-4-(1,1-dimethylheptyl)phenyl]-4-(3-hydroxypropyl)cyclohexan-1-ol) at a dose of 1.25 mg/kg) in mice, according to the method described by Pertwee R. G. in Marijuana 84, Harvey D. J. eds., Oxford IRL
Press, 263-277 (1985). At time 0 min, the rectal temperature of male CD1 mice is measured before injection of the test product. At 30 minutes, a further measurement of the rectal temperature of the mice is taken and the racemic CP55,940 agonist ((1RS,3RS,4RS)-3-[2-hydroxy-4-(1,1-dimethylheptyl)phenyl]-4-(3-hydroxypropyl)cyclohexan-1-ol) (1.25 mg/kg i.p. in 10% cremophor) is administered. At 90 minutes, the rectal temperature is again measured. The results are expressed as % with respect to the control batched injected with CP 55,940 (minimum temperature) and to the carrier batch without treatment with CP55,940 (maximum temperature).

T1 sequence (P47746 whole entry): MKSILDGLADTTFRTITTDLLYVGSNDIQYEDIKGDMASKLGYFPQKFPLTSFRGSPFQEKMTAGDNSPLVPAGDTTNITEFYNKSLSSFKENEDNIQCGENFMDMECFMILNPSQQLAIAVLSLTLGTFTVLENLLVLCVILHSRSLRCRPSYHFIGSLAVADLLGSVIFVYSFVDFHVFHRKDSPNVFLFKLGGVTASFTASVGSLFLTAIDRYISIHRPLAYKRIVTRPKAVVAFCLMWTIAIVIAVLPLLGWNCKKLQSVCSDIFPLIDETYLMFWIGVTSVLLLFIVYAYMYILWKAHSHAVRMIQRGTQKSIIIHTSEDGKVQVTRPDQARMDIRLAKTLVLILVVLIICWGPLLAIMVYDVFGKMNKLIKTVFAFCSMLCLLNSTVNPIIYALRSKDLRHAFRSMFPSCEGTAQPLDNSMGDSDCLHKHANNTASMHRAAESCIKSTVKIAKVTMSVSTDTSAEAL
T2 sequence (P21554 whole entry): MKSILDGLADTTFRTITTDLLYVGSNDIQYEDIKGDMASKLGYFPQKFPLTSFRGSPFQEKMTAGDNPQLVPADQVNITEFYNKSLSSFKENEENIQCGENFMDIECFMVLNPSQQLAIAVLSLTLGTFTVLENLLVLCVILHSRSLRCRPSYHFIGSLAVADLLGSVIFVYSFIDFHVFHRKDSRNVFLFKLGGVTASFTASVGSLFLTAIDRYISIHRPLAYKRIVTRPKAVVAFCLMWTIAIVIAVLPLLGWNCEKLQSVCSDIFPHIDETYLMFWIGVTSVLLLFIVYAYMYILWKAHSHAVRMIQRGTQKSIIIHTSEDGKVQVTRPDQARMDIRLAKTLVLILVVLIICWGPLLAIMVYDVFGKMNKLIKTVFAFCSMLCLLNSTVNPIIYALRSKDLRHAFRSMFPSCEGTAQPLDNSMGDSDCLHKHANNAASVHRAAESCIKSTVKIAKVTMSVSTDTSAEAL
T3 sequence (P47746 whole entry): as the sequence (P47746 whole entry) above

| SMILES | percentage of inhibition [1] | IC50 [2] | percentage of inhibition [3] | melting point |
| --- | --- | --- | --- | --- |
| CS(=O)(=O)N(c1cc(C(=O)N[C@H]2CCC[C@@H]2O)cc(C(F)(F)F)c1)C1CN(C(c2ccc(Cl)cc2)c2ccc(Cl)cc2)C1 (racemic) [compound 41, 3-({1-[bis(4-chlorophenyl)methyl]azetidin-3-yl} (methanesulphonyl)amino)-N-((1SR,2SR)-2-hydroxycyclopent-1-yl)-5-(trifluoromethyl)benzamide] | 91% | – | – | – |
| CC1(C)OCC(CNC(=O)c2cccc(N(C3CN(C(c4ccc(Cl)cc4)c4ccc(Cl)cc4)C3)S(C)(=O)=O)c2)O1 (single isomer, unassigned; (-)) [Compound No. 5, (−)-3-({1-[Bis(4-chlorophenyl)methyl]azetidin-3-yl}(methanesulphonyl)amino)-N-(2,2-dimethyl-1,3-dioxolan-4-ylmethyl)benzamide] | – | 22 nM | – | – |
| CS(=O)(=O)N(c1cccc(C(=O)NCCO)c1)C1CN(C(c2ccc(Cl)cc2)c2ccc(Cl)cc2)C1 [Compound No. 7, 3-({1-[Bis(4-chlorophenyl)methyl]azetidin-3-yl}(methanesulphonyl)amino)-N-(2-hydroxyethyl)benzamide hydrochloride (1:1)] | – | 61 nM | – | – |
| C[C@@H](CO)NC(=O)c1cccc(N(C2CN(C(c3ccc(Cl)cc3)c3ccc(Cl)cc3)C2)S(C)(=O)=O)c1 [Compound No. 9, (+)-3-({1-[Bis(4-chlorophenyl)methyl]azetidin-3-yl}(methanesulphonyl)amino)-N-(2-hydroxy-1-methylethyl)benzamide] | 82% | 15 nM | 30% | 192 to 194 °C |
| CC(C)(O)CNC(=O)c1cccc(N(C2CN(C(c3ccc(Cl)cc3)c3ccc(Cl)cc3)C2)S(C)(=O)=O)c1 [compound 13, 3-({1-[bis(4-chlorophenyl)methyl]azetidin-3-yl}(methanesulphonyl)amino)-N-(2-hydroxy-2-methylprop-1-yl)benzamide] | – | – | – | 140 °C |
| CC(C)(CO)NC(=O)c1cccc(N(C2CN(C(c3ccc(Cl)cc3)c3ccc(Cl)cc3)C2)S(C)(=O)=O)c1 [compound 16, 3-({1-[bis(4-chlorophenyl)methyl]azetidin-3-yl}(methanesulphonyl)amino)-N-(2-hydroxy-1,1-dimethylethyl)benzamide] | – | – | – | 162 °C |
| CC(CO)(CO)NC(=O)c1cccc(N(C2CN(C(c3ccc(Cl)cc3)c3ccc(Cl)cc3)C2)S(C)(=O)=O)c1 [compound 18, 3-({1-[bis(4-chlorophenyl)methyl]azetidin-3-yl}(methanesulphonyl)amino)-N-[1,3-dihydroxy-2-methylprop-2-yl]benzamide] | – | 6 nM | – | 192 °C |
| CS(=O)(=O)N(c1cccc(C(=O)NC2(CCO)CC2)c1)C1CN(C(c2ccc(Cl)cc2)c2ccc(Cl)cc2)C1 [compound 21, 3-({1-[bis(4-chlorophenyl)methyl]azetidin-3-yl}(methanesulphonyl)amino)-N-[1-(2-hydroxyethyl)cyclopropyl]benzamide] | – | 38 nM | – | – |

More lines, now with the values ahead:

| percentage of inhibition [1] | IC50 [2] | percentage of inhibition [3] | melting point | SMILES |
| --- | --- | --- | --- | --- |
| – | 72 nM | – | – | CS(=O)(=O)N(c1cc(F)cc(C(=O)N[C@H]2COC[C@@H]2O)c1)C1CN(C(c2ccc(Cl)cc2)c2ccc(Cl)cc2)C1 (racemic) [compound 47, 3-({1-[bis(4-chlorophenyl)methyl]azetidin-3-yl}(methanesulphonyl)amino)-5-fluoro-N-((3SR,4RS)-4-hydroxytetrahydrofuran-3-yl)benzamide] |
| – | – | 18% | 148 to 150 °C | CC(CO)NC(=O)c1cc(F)cc(N(C2CN(C(c3ccc(Cl)cc3)c3ccc(Cl)cc3)C2)S(C)(=O)=O)c1 (single isomer, unassigned; (+)) [Compound No. 25, (+)-3-({1-[Bis(4-chlorophenyl)methyl]azetidin-3-yl}(methanesulphonyl)amino)-5-fluoro-N-(2-hydroxy-1-methylethyl)benzamide] |
| – | – | – | 192 to 194 °C | CS(=O)(=O)N(c1cccc(C(=O)NC(CO)CO)c1)C1CN(C(c2ccc(Cl)cc2)c2ccc(Cl)cc2)C1 [Compound No. 17, 3-({1-[Bis(4-chlorophenyl)methyl]azetidin-3-yl}(methanesulphonyl)amino)-N-(2-hydroxy-1-(hydroxymethyl)ethyl)benzamide] |
| – | 20 nM | – | 144 to 146 °C | CS(=O)(=O)N(c1cc(F)cc(C(=O)NC(CO)CO)c1)C1CN(C(c2ccc(Cl)cc2)c2ccc(Cl)cc2)C1 [Compound No. 26, 3-({1-[Bis(4-chlorophenyl)methyl]azetidin-3-yl}(methanesulphonyl)amino)-5-fluoro-N-(2-hydroxy-1-(hydroxymethyl)ethyl)benzamide] |
| 58% | – | – | 159 to 161 °C | CC(CO)(CO)NC(=O)c1cc(F)cc(N(C2CN(C(c3ccc(Cl)cc3)c3ccc(Cl)cc3)C2)S(C)(=O)=O)c1 [Compound No. 27, 3-({1-[Bis(4-chlorophenyl)methyl]azetidin-3-yl}(methanesulphonyl)amino)-5-fluoro-N-(2-hydroxy-1-hydroxymethyl-1-methylethyl)benzamide] |
| – | 66 nM | – | – | CS(=O)(=O)N(c1cc(F)cc(C(=O)NCC(O)C(F)(F)F)c1)C1CN(C(c2ccc(Cl)cc2)c2ccc(Cl)cc2)C1 (centres unmarked) [compound 30, 3-({1-[bis(4-chlorophenyl)methyl]azetidin-3-yl}(methanesulphonyl)amino)-5-fluoro-N-(3,3,3-trifluoro-2-hydroxyprop-1-yl)benzamide] |
| 85% | 16 nM | – | – | C[C@@H](CO)NC(=O)c1cc(N(C2CN(C(c3ccc(Cl)cc3)c3ccc(Cl)cc3)C2)S(C)(=O)=O)cc(C(F)(F)F)c1 [compound 36, (+)-3-({1-[bis(4-chlorophenyl)methyl]azetidin-3-yl}(methanesulphonyl)amino)-N—((S)-1-hydroxyprop-2-yl)-5-(trifluoromethyl)benzamide] |

Reference: patent US20110053908A1, “AZETIDINE-DERIVED COMPOUNDS, PREPARATION METHOD THEREFOR AND THERAPEUTIC USE OF SAME” (SANOFI-AVENTIS, priority 2008, published 2011)
